Legend:
Assay type in all cases: in vivo
[1] = test system: Puccinia recondita; test: Preventive fungicidal activity (5 days) against Puccinia recondita on wheat; conditions: for P5 activity NT (parts developed during the test) / P5 activity T (parts treated directly with the products): wheat Salgemma, inoculation 5 days after spraying, reduction of diseased leaf area vs non-treated
Method: Determination of the Preventive Fungicidal Activity (5 Days) Against Puccinia recondita on Wheat
Leaves of wheat plants of the Salgemma variety, grown in pots in a conditioned environment at 20° C. and 70% of Relative Humidity (RH) were treated by spraying both sides of the leaves with the compound under examination (see Table 4 hereunder) dispersed in a hydroacetone solution at 20% by volume of acetone.
After remaining 5 days in a conditioned environment, the plants were sprayed on both sides of the leaves with an aqueous suspension of conidia of Puccinia recondita (2 mg of inoculum per 1 ml of solution for infection).
After spraying, the plants were kept in a humidity-saturated environment at a temperature ranging from 18 to 24° C. for the incubation period of the fungus (1 day).
At the end of this period, the plants were put in a greenhouse with a relative humidity (RH) of 70% and at a temperature of 18-24° C. for 14 days.
At the end of this period, the external symptoms of the pathogen appeared and it was therefore possible to proceed with the visual evaluation of the intensity of the infection, both on the parts treated directly with the products (T) and on the parts developed during the implementation of the test (NT).
The fungicidal activity is expressed as a percentage of the reduction, with respect to non-treated seedlings (comparison), in the area of the leaf affected by the disease (100=full effectiveness; 0=zero effectiveness).

[2] = test system: Plasmopara viticola; test: Preventive activity (7 days) against Plasmopara viticola on vines; conditions: vine Merlot, inoculation 7 days after treatment, reduction of diseased leaf area vs non-treated
Method: Determination of the Preventive Activity (7 Days) of the Compounds Having Formula (I) Against Plasmopara viticola on Vines
Leaves of vine plants of the Merlot variety, grown in pots, in a conditioned environment, (20±1° C., 70% of R.H.) were treated by spraying both sides with the compound under examination.
7 days after the treatment, the plants were inoculated with an aqueous suspension of spores of Plasmopara viticola (200,000 spores/cc) by spraying both sides of the leaves with a compressed air gun.
After remaining 24 hours in a humidity-saturated environment, at 21° C. the plants were transferred for an incubation period (7 days) in a conditioned environment at 70% of R H. and at 24° C.
At the end of this period, the external symptoms of the pathogen appeared and it was therefore possible to proceed with the evaluation of the intensity of the infection.
The fungicidal activity was expressed as the reduction percentage, with respect to non-treated seedlings, in the area of the leaf affected by the disease (100=full effectiveness; 0=zero effectiveness).

[3] = test system: Helmintosporium teres; test: Fungicidal activity against Helmintosporium teres on barley; conditions: barley cv. Gemini, scale 0 (plant completely infected) to 100 (healthy plant)
Method: Determination of the Fungicidal Activity of the Compounds Having Formula (I) Against Helmintosporium Teres on Barley
Leaves of barley plants (cultivar Gemini), grown in pots in a conditioned environment (20±1° C., 70% of R.H.), were treated by spraying both sides of the leaves with the compounds under examination, dispersed in a […] solution at 20% by volume of acetone.
After remaining 5 days in a conditioned environment, the plants were sprayed on both sides of the leaves with an aqueous suspension of conidia of Helmintosporium teres (50,000 conidia per cm^3 (adding Tween 20-1 drop/100 ml).
The plants were then kept in a controlled environment during the incubation period of the fungus (1 day wet room for infection, 3 days in a cell with R.H. 70% and […] for the incubation period, 3 days for wet room evasion, 12 days biological cycle).
At the end of this period (12 days), the fungicidal activity was evaluated according to an evaluation percentage scale from 0 (plant completely infected) to 100 (healthy plant).

Row | Compound | P5 activity NT (parts developed during the test) ([1]; 125 ppm) [%] | P5 activity T (parts treated directly with the products) ([1]; 125 ppm) [%] | P5 activity NT (parts developed during the test) ([1]; 250 ppm) [%] | P5 activity T (parts treated directly with the products) ([1]; 250 ppm) [%] | P7 activity ([2]; 30 ppm) [%] | P7 activity ([2]; 125 ppm) [%] | P7 activity ([3]; 125 ppm) [%] | P7 activity ([3]; 250 ppm) [%] | fungicidal activity (full activity) ([1]; dosage of 250 ppm, T/NT not specified) [%]
1 | CC1(C)CC(NC(=O)c2cccc(NC=O)c2O)CC(C)(C)C1 [CR1, 3-formylamino-2-hydroxy-N-(3,3,5,5-tetramethylcyclohexyl)benzamide, reference compound] | 35 | 50 | 50 | 65 | 50 | 65 | 5 | 15 | –
2 | CC(C)C(=O)OCOc1c(NC=O)cccc1C(=O)NC1CC(C)(C)CC(C)(C)C1 [Compound 1, 3-formylamino-2-[(2-methyl-propanoyl-oxy)methoxy]-N-(3,3,5,5-tetramethylcyclohexyl)benzamide] | 60 | 70 | 65 | 75 | 100 | 100 | 75 | 80 | 100
3 | CC(C)C(=O)OCOc1c(C(=O)NC2CC(C)(C)CC(C)(C)C2)cccc1N(C=O)COC(=O)C(C)C [Compound 4, 3-(N′-formyl-N′-[(2-methylpropanoyl-oxy)methyl]amino)-2-[(2-methylpropanoyloxy)methoxy]-N-(3,3,5,5-tetramethylcyclohexyl)-benzamide] | 65 | 70 | 70 | 80 | 100 | 100 | – | – | –

Source: US11365175B2, “Aromatic amides having a fungicidal activity, their agronomic compositions and relative preparation method” (ISAGRO S.p.A., priority 2017, dated 2022)
